{"source": "patent US11293023B2", "about": "“Tunable endogenous protein degradation” (Dana-Farber Cancer Institute, Inc., priority 2015, dated 2022)", "format_in_all_cases": "cell-based", "key": {"[1]": {"target": "T1, FKBP* (FKBP12 F36V), HA-tagged (Homo sapiens, UniProt P62942, F37V)", "T1 construct": "expressed in transfected cells; host or cells: 293FT cells (CRBN-WT or CRBN-/-)", "T1 sequence (P62942 2-108 F37V limits assumed)": "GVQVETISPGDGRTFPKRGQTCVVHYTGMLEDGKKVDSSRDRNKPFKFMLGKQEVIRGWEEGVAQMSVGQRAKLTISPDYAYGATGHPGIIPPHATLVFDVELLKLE", "experiment": "Immunoblot of FKBP* degradation in 293FT cells (CRBN-WT or CRBN−/−)", "procedure": "293FT cells (CRBN-WT or CRBN−/−) expressing either HA-tagged FKBP12WT or FKBP* were treated with indicated concentrations of dFKBP7 for 4 hours.\nIsogenic 293FT cells (CRBN-WT or CRBN−/−) expressing either FKBP12WT or FKBP* were treated with 100 nM of either dFKBP7 or dFKBP13 for 4 hours.\nIsogenic 293FT cells (CRBN-WT or CRBN−/−) expressing HA-tagged FKBP* were treated with the indicated dose of dFKBP13 for 4 hours.\n293FT cells (CRBN-WT) expressing FKBP* were pretreated with 1 uM Carfilzomib (proteasome inhibitor), 0.5 uM MLN4924 (neddylation inhibitor), and 10 uM Lenalidomide (CRBN binding ligand) for two hours prior to a 4 hour treatment with dFKBP13.\nThe dTAG is predicated on the selectivity of FKBP* specific ligands over endogenous, wild type FKBP. In 293T cells expressing wild type FKBP12 or FKBP*, dFKBP7 induces targeted degradation only in FKBP* expressing cells. […] 293FT cells (CRBN-WT or CRBN−/−) expressing either HA-tagged FKBP12WT or FKBP* were treated with indicated concentrations of dFKBP7 for 4 hours.\nIn 293T cells expressing wild type FKBP12 or FKBP*, treatment with dFKBP7 and dFKBP13 induces targeted degradation only in FKBP* expressing cells. Isogenic 293FT cells (CRBN-WT or CRBN−/−) were engineered to expressed either FKBP12WT or FKBP*. Cells were treated with 100 nM of either dFKBP7 or dFKBP13 for 4 hours before lysates were prepared for western immunoblot analysis.\nIn an effort to define the optimal concentration of dFKB13 heterobifunctional compound to induce degradation of FKBP*, degradation was measured upon treatment with increasing concentrations of dFKBP13. Isogenic 293FT cells (CRBN-WT or CRBN−/−) were engineered to expressed HA-tagged FKBP*. Cells were treated with the indicated dose of dFKBP13 for 4 hours before lysates were prepared for western immunoblot analysis.\n293FT cells (CRBN-WT) were engineered to express FKBP*. Cells were pretreated with 1 uM Carfilzomib (proteasome inhibitor), 0.5 uM MLN4924 (neddylation inhibitor), and 10 uM Lenalidomide (CRBN binding ligand) for two hours prior to a 4 hour treatment with dFKBP13. Lysates were prepared and western immunoblot analysis performed."}, "[2]": {"test_system": "FKBP*-KRASG12V", "experiment": "Immunoblot of FKBP*-KRASG12V (dTAG-KRAS) degradation in NIH3T3 cells", "procedure": "(§1) FIG. 11 is an immunoblot of NIH3T3 cells expressing KRASG12V allele fused to FKBP* in the N-terminus or C-terminus. Cells were treated with 500 nM dFKBP7 for the indicated time. Cells were harvested and immunoblotted to measure degradation of FKBP*-KRASG12V and downstream surrogates of KRAS signaling (e.g. pMEK and pAKT).\n(§2) FIG. 12 is an immunoblot of NIH3T3 cells expressing FKBP* fused to the N-terminus of KRASG12V treated with 1 uM of the indicated dFKBP heterobifunctional compounds for 24 hours. Cells were harvested and immunoblotted to measure degradation of FKBP*-KRASG12V and downstream surrogates of KRAS signaling (e.g. pMEK and pAKT).\n(§3) FIG. 13 is an immunoblot of NIH3T3 cells expressing FKBP* fused to the N-terminus of KRASG12V treated with the indicated concentrations of dFKBP13 for 24 hours. Cells were harvested and immunoblotted to measure degradation of FKBP*-KRASG12V and downstream surrogates of KRAS signaling (e.g. pMEK and pAKT).\n(§4) FIG. 14 is an immunoblot of NIH3T3 cells expressing FKBP* fused to the N-terminus of KRASG12V treated with 1 uM dFKBP13 for the indicated time. Cells were harvested and immunoblotted to measure degradation of FKBP*-KRASG12V and downstream surrogates of KRAS signaling (e.g. pMEK and pAKT).\nFIG. 15 is an immunoblot of NIH3T3 cells expressing dTAG-KRASG12V pretreated with 1 uM Carfilzomib (proteasome inhibitor), 0.5 uM MLN4924 (neddylation inhibitor), and 10 uM Lenalidomide (CRBN binding ligand) for two hours prior to a 4 hour treatment with dFKBP13.\n(§5) Cells were treated with 500 nM dFKBP7 for the indicated time. Cells were harvested and immunoblotted to measure degradation of FKBP*-KRAS and downstream surrogates of KRAS signaling (e.g. pMEK and pAKT).\n(§6) In an effort to identify the best performing dFKBP molecule, dTAG-KRAS degradation was profiled across a series of dFKBP molecules. Western blotting of NIH3T3 cells expressing dTAG-KRASG12V were treated with 1 μM of the indicated dFKBP heterobifunctional compounds for 24 hours. Cells were harvested and immunoblotted to measure degradation of FKBP*-KRAS and downstream surrogates of KRAS signaling (e.g. pMEK and pAKT).\n(§7) Western blotting of NIH3T3 cells expressing FKBP* fused to the N-terminus of KRAS treated with the indicated concentrations of dFKBP13 for 24 hours. Cells were harvested and immunoblotted to measure degradation of FKBP*-KRAS and downstream surrogates of KRAS signaling (e.g. pMEK and pAKT).\n(§8) To evaluate the kinetic control of targeted degradation of dTAG-KRAS, dFKBP13 was administered by increased duration. Western blotting of NIH3T3 cells expressing FKBP* fused to the N-terminus of KRAS treated with 1 μM dFKBP13 for the indicated time. Cells were harvested and immunoblotted to measure degradation of FKBP*-KRAS and downstream surrogates of KRAS signaling (e.g. pMEK and pAKT).\nNIH3T3 cells (CRBN-WT) were engineered to express dTAG-KRASG12V. Cells were pretreated with 1 uM Carfilzomib (proteasome inhibitor), 0.5 uM MLN4924 (neddylation inhibitor), and 10 uM Lenalidomide (CRBN binding ligand) for two hours prior to a 4 hour treatment with dFKBP13. Lysates were prepared and western immunoblot analysis performed. […] Pre-treatment with the NAE1 inhibitor MLN4924 rescued dTAG-KRASG12V expression establishing dependence on CRL activity, as expected for cullin-based ubiquitin ligases that require neddylation for processive E3 ligase activity. Pre-treatment with excess Lenalidomide abolished dFKBP13-dependent dTAG-KRASG12V degradation, confirming the requirement of CRBN engagement for degradation."}, "[3]": {"test_system": "KRAS signaling (pMEK and pAKT)", "experiment": "Immunoblot of downstream surrogates of KRAS signaling in NIH3T3 cells expressing dTAG-KRAS", "conditions": "NIH3T3 FKBP*-KRASG12V, 1 uM, 24 hours", "procedure": "as §1, §2, §3, §4, §5, §6, §7, §8\nThe dFKBP13 heterobifunctional compound potently degrades dTAG-KRAS mutant alleles. NIH3T3 cells were engineered to express KRAS alleles either WT or mutant forms of amino acid glycine 12 (G12C, G12D, and G12V). Western blotting of NIH3T3 cells expressing dTAG fused to the N-terminus of KRAS alleles were treated with 1 uM of dFKBP13 for 24 hours. Cells were harvested and immunoblotted to measure degradation of dTAG-KRAS and downstream surrogates of KRAS signaling (e.g. pMEK and pAKT).\nThe dFKBP13 heterobifunctional compound potently degrades dTAG-KRAS mutant alleles. NIH3T3 cells were engineered to express either WT or mutant KRAS alleles (G13D, Q61L, and Q61R). Western blotting of NIH3T3 cells expressing dTAG fused to the N-terminus of KRAS alleles were treated with 1 uM of dFKBP13 for 24 hours. Cells were harvested and immunoblotted to measure degradation of dTAG-KRAS and downstream surrogates of KRAS signaling (e.g. pMEK and pAKT)."}, "[4]": {"conditions": "1 uM Carfilzomib, two hours prior to a 4 hour treatment with dFKBP13"}, "[5]": {"conditions": "10 uM Lenalidomide, two hours prior to a 4 hour treatment with dFKBP13"}, "[6]": {"conditions": "0.5 uM MLN4924, two hours prior to a 4 hour treatment with dFKBP13"}}}
{"smiles": "CC(C)C[C@H](NC(=O)[C@H](CCc1ccccc1)NC(=O)CN1CCOCC1)C(=O)N[C@@H](Cc1ccccc1)C(=O)N[C@@H](CC(C)C)C(=O)[C@@]1(C)CO1", "note": "[Carfilzomib, reference compound]", "values": [{"measurement": "effect of pretreatment on dFKBP13-induced degradation of HA-tagged FKBP*", "setting": "[1]; [4]", "result": "rescued"}, {"measurement": "effect of pretreatment on dFKBP13-induced degradation of dTAG-KRASG12V", "setting": "[2]; [4]", "result": "rescued"}]}
{"smiles": "Nc1cccc2c1CN(C1CCC(=O)NC1=O)C2=O", "note": "(centres unmarked) [Lenalidomide, reference compound]", "values": [{"measurement": "effect of pretreatment on dFKBP13-induced degradation of HA-tagged FKBP*", "setting": "[1]; [5]", "result": "abolished"}, {"measurement": "effect of pretreatment on dFKBP13-induced degradation of dTAG-KRASG12V", "setting": "[2]; [5]", "result": "abolished"}]}
{"smiles": "NS(=O)(=O)OC[C@@H]1C[C@@H](n2ccc3c(N[C@H]4CCc5ccccc54)ncnc32)C[C@@H]1O", "note": "[MLN4924, reference compound]", "values": [{"measurement": "effect of pretreatment on dFKBP13-induced degradation of HA-tagged FKBP*", "setting": "[1]; [6]", "result": "rescued"}, {"measurement": "effect of pretreatment on dFKBP13-induced degradation of dTAG-KRASG12V", "setting": "[2]; [6]", "result": "rescued"}]}
{"smiles": "CC[C@H](C(=O)N1CCCC[C@H]1C(=O)O[C@H](CCc1ccc(OC)c(OC)c1)c1cccc(OCC(=O)NCCCCCCCCNC(=O)COc2cccc3c2C(=O)N(C2CCC(=O)NC2=O)C3=O)c1)c1cc(OC)c(OC)c(OC)c1", "note": "(some centres unmarked) [dFKBP9]", "values": [{"measurement": "downstream signaling (pMEK and pAKT)", "setting": "[3]", "result": "inhibition of downstream signaling"}, {"measurement": "degradation of FKBP*-KRASG12V", "setting": "[2]; NIH3T3, 1 uM, 24 hours", "result": "potent degradation"}]}
